Counter-ions that a name gives are not always drawn.
Key:
[1] = molecular target: T1, recombinant human Lp-PLA2 (Homo sapiens, UniProt Q13093); test: (1b) hrThioPAF assay, recombinant human Lp-PLA2; format: biochemical; settings: Examples 266-412 were tested here, one experiment or average of multiple experiments, read-out: rhLp-PLA2 (pIC50) (converted)
T1 sequence (Q13093 22-441): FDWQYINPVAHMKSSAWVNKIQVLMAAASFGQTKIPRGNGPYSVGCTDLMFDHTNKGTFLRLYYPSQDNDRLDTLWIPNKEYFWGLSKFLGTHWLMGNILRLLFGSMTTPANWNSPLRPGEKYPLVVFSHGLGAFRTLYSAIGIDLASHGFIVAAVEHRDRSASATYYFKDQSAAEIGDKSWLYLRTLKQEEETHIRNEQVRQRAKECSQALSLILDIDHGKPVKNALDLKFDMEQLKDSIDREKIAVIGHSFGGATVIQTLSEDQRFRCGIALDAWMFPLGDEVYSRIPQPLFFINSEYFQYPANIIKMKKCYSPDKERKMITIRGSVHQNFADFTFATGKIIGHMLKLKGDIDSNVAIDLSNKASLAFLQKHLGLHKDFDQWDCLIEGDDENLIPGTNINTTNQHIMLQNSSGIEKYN
Summary of the method: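 Fluorogenic assay: 20 pM rhLp-PLA2 in 50 mM HEPES pH 7.4, 150 mM NaCl, 1 mM CHAPS with 1:3 serially diluted compounds; substrate mix of 40 μM 2-thio-PAF, 40 μM CPM, 400 μM NEM (pre-addition levels). 20 min at 25 °C in the dark; fluorescence ex 380/em 485 nm, pIC50 by curve fitting.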

[2] = molecular target: T2, Lp-PLA2 in human plasma (Homo sapiens, UniProt Q13093); test: (3b) Lp-PLA2 human plasma alternative Thio-PAF assay; format: biochemical; settings: (3b) alternative Thio-PAF assay, pooled human plasma; Examples of 266-412 were tested here; read-out: pIC50 in the Lp-PLA2 human plasma assay (converted)
T2 construct: from tissue; host or cells: pooled human plasma
T2 sequence (Q13093 22-441): T1 sequence (Q13093 22-441)
Summary of the method: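 Pooled human plasma was preincubated with compound for 15 min at RT. Substrate solution (2 mM 2-thio-PAF, 52 μM CPM, 2.5 mM NEM in 50 mM HEPES pH 7.4, 150 mM NaCl, 1 mM CHAPS; pre-addition concentrations) was added, and the reaction was quenched with 5% TFA after 3 min. Fluorescence was read at ex 380/em 485 nm and fitted to give pIC50.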

SMILES	IC50 [1] [µM]	IC50 [2] [µM]
CC(C)OC(=O)N1CCN2c3cc(OCc4ccc(F)c(F)c4)nc(=O)n3CC2C1 (stereo not drawn) [Example E307, Isopropyl 7-((3,4-difluorobenzyl)oxy)-9-oxo-3,4,11,11a-tetrahydro-1H-pyrazino[1′,2′:3,4]imidazo[1,2-c]pyrimidine-2(9H)-carboxylate]	≤ 10	≤ 0.1
CNC1(C(=O)N2CCN3c4cc(OCc5ccc(F)c(F)c5)nc(=O)n4CC3C2)CC1 (stereo not drawn) [Example E308, 7-((3,4-Difluorobenzyl)oxy)-2-(1-(methylamino)cyclopropanecarbonyl)-3,4,11,11a-tetrahydro-1H-pyrazino[1′,2′:3,4]imidazo[1,2-c]pyrimidin-9(2H)-one]	≤ 10	≤ 0.1
CC(C)C(=O)N1CCN2c3cc(OCc4ccc(F)c(F)c4)nc(=O)n3CC2C1 (stereo not drawn) [Example E310, 7-((3,4-Difluorobenzyl)oxy)-2-isobutyryl-3,4,11,11a-tetrahydro-1Hpyrazino[1′,2′:3,4] imidazo[1,2-c]pyrimidin-9(2H)-one]	≤ 0.1	≤ 0.1
CS(=O)(=O)N1CCN2c3cc(OCc4ccc(F)c(F)c4)nc(=O)n3CC2C1 (stereo not drawn) [Example E313, 7-((3,4-Difluorobenzyl)oxy)-2-(methylsulfonyl)-3,4,11,11a-tetrahydro-1H-pyrazino[1′,2′:3,4]imidazo[1,2-c]pyrimidin-9(2H)-one]	≤ 0.1	≤ 0.1
CC(=O)N1CCN2c3cc(OCc4ccc(F)c(F)c4)nc(=O)n3CC2C1 (stereo not drawn) [Example E315, 2-Acetyl-7-((3,4-difluorobenzyl)oxy)-3,4,11,11a-tetrahydro-1H-pyrazino[1′,2′:3,4]imidazo[1,2-c]pyrimidin-9(2H)-one]	≤ 0.1	≤ 0.1
CN1CCN2c3cc(OCc4ccc(F)c(F)c4)nc(=O)n3CC2C1 (stereo not drawn) [Example E320, 7-((3,4-Difluorobenzyl)oxy)-2-methyl-3,4,11,11a-tetrahydro-1H-pyrazino[1,2′:3,4]imidazo[1,2-c]pyrimidin-9(2H)-one]	≤ 10	≤ 0.1
Cc1ccc(Oc2c(F)cc(COc3cc4n(c(=O)n3)CC3CN(C)CCN43)cc2F)cn1 (stereo not drawn) [Example E321, 7-((3,5-Difluoro-4-((6-methylpyridin-3-yl)oxy)benzyl)oxy)-2-methyl-3,4,11,11a-tetrahydro-1Hpyrazino[1′,2′:3,4]imidazo[1,2-c]pyrimidin-9(2H)-one]	≤ 10	≤ 0.1
N#Cc1cc(COc2cc3n(c(=O)n2)CC2CN(CC(F)(F)F)CCN32)ccc1F (stereo not drawn) [Example E322, 2-Fluoro-5-(((9-oxo-2-(2,2,2-trifluoroethyl)-2,3,4,9,11,11a-hexahydro-1H-pyrazino[1′,2′:3,4]imidazo[1,2-c]pyrimidin-7-yl)oxy)methyl)benzonitrile]	≤ 10	≤ 0.1
N#Cc1cc(COc2cc3n(c(=O)n2)CC2CN(C(=O)C(F)(F)F)CCN32)ccc1F (stereo not drawn) [Example E323, 2-Fluoro-5-(((9-oxo-2-(2,2,2-trifluoroacetyl)-2,3,4,9,11,11a-hexahydro-1H-pyrazino[1′,2′:3,4]imidazo[1,2-c]pyrimidin-7-yl)oxy)methyl)benzonitrile]	≤ 10	≤ 0.1
N#Cc1cc(COc2cc3n(c(=O)n2)CC2CN(CC(=O)O)CCN32)ccc1F (stereo not drawn) [Example E324, 2-(7-((3-Cyano-4-fluorobenzyl)oxy)-9-oxo-3,4,11,11a-tetrahydro-1H-pyrazino[1,2′:3,4]imidazo[1,2-c]pyrimidin-2(9H)-yl)acetic acid, trifluoroacetic acid Salt]	≤ 10	≤ 0.1
N#Cc1cc(COc2cc3n(c(=O)n2)CC2CN(CCC(=O)O)CCN32)ccc1F (stereo not drawn) [Example E325, 3-(7-((3-Cyano-4-fluorobenzyl)oxy)-9-oxo-3,4,11,11a-tetrahydro-1H-pyrazino[1,2′:3,4]imidazo[1,2-c]pyrimidin-2(9H)-yl)propanoic acid]	≤ 10	≤ 0.1
N#Cc1cc(COc2cc3n(c(=O)n2)CC2COCCN32)ccc1F (stereo not drawn) [Example E329, 2-Fluoro-5-(((9-oxo-1,3,4,9,11,11a-hexahydropyrimido[6′,1′:2,3]imidazo[5,1-c][1,4]oxazin-7-yl)oxy)methyl)benzonitrile]	≤ 10	≤ 0.1
O=C(C1CC1)N1CCN2c3cc(OCc4ccc(F)c(F)c4)nc(=O)n3CC2C1 (stereo not drawn) [Example E330, 2-(Cyclopropanecarbonyl)-7-((3,4-difluorobenzyl)oxy)-3,4,11,11a-tetrahydro-1H-pyrazino[1′,2′:3,4]imidazo[1,2-c]pyrimidin-9(2H)-one]	≤ 10	≤ 0.1
O=c1nc(OCc2ccc(F)c(F)c2)cc2n1CC1CN(S(=O)(=O)C3CC3)CCN21 (stereo not drawn) [Example E331, 2-(Cyclopropylsulfonyl)-7-((3,4-difluorobenzyl)oxy)-3,4,11,11a-tetrahydro-1H-pyrazino[1′,2′:3,4]imidazo[1,2-c]pyrimidin-9(2H)-one]	≤ 10	≤ 0.1
CC(C)(C)C(=O)N1CCN2c3cc(OCc4ccc(F)c(F)c4)nc(=O)n3CC2C1 (stereo not drawn) [Example E332, 7-((3,4-Difluorobenzyl)oxy)-2-pivaloyl-3,4,11,11a-tetrahydro-1H-pyrazino[1′,2′:3,4]imidazo[1,2-c]pyrimidin-9(2H)-one]	≤ 10	≤ 0.1
NC1(C(=O)N2CCN3c4cc(OCc5ccc(F)c(F)c5)nc(=O)n4CC3C2)CC1 (stereo not drawn) [Example E333, 2-(1-Aminocyclopropanecarbonyl)-7-((3,4-difluorobenzyl)oxy)-3,4,11,11a-tetrahydro-1H-pyrazino[1′,2′:3,4]imidazo[1,2-c]pyrimidin-9(2H)-one hydrochloride]	≤ 10	≤ 0.1
CC(C)(N)CC(=O)N1CCN2c3cc(OCc4ccc(F)c(F)c4)nc(=O)n3CC2C1 (stereo not drawn) [Example E334, 2-(3-Amino-3-methylbutanoyl)-7-((3,4-difluorobenzyl)oxy)-3,4,11,11a-tetrahydro-1H-pyrazino[1′,2′:3,4]imidazo[1,2-c]pyrimidin-9(2H)-one]	≤ 10	≤ 0.1
CC(C)(N)C(=O)N1CCN2c3cc(OCc4ccc(F)c(F)c4)nc(=O)n3CC2C1 (stereo not drawn) [Example E335, 2-(2-Amino-2-methylpropanoyl)-7-((3,4-difluorobenzyl)oxy)-3,4,11,11a-tetrahydro-1H-pyrazino[1,2′:3,4]imidazo[1,2-c]pyrimidin-9(2H)-one]	≤ 10	≤ 0.1
O=c1nc(OCc2ccc(F)c(F)c2)cc2n1CC1COCCN21 (stereo not drawn) [Example E336, 7-((3,4-Difluorobenzyl)oxy)-3,4,11,11a-tetrahydropyrimido[6′,1′:2,3]imidazo[5,1-c][1,4] oxazin-9(1H)-one]	≤ 10	≤ 0.1
CN(C)CCC(=O)N1CCN2c3cc(OCc4ccc(F)c(F)c4)nc(=O)n3CC2C1 (stereo not drawn) [Example E337, 7-((3,4-Difluorobenzyl)oxy)-2-(3-(dimethylamino)propanoyl)-3,4,11,11a-tetrahydro-1H-pyrazino[1,2′:3,4]imidazo[1,2-c]pyrimidin-9(2H)-one]	≤ 10	≤ 0.1
O=c1nc(OCc2ccc(F)c(F)c2)cc2n1CC1CN(CC(F)(F)F)CCN21 (stereo not drawn) [Example E338, 7-((3,4-Difluorobenzyl)oxy)-2-(2,2,2-trifluoroethyl)-3,4,11,11a-tetrahydro-1H pyrazino[1′,2′:3,4]imidazo[1,2-c]pyrimidin-9(2H)-one trifluoroacetate]	0.01	≤ 0.1
O=C([C@@H]1CCN1)N1CCN2c3cc(OCc4ccc(F)c(F)c4)nc(=O)n3CC2C1 (stereo partly drawn) [Example E339, 2-((S)-azetidine-2-carbonyl)-7-((3,4-difluorobenzyl)oxy)-3,4,11,11a-tetrahydro-1H-pyrazino[1′,2′:3,4]imidazo[1,2-c]pyrimidin-9(2H)-one]	≤ 10	≤ 0.1
O=C([C@@H]1CCCN1)N1CCN2c3cc(OCc4ccc(F)c(F)c4)nc(=O)n3CC2C1 (stereo partly drawn) [Example E340, 7-((3,4-Difluorobenzyl)oxy)-2-((S)-pyrrolidine-2-carbonyl)-3,4,11,11a-tetrahydro-1H-pyrazino[1,2′:3,4]imidazo[1,2-c]pyrimidin-9(2H)-one]	≤ 10	≤ 0.1
O=C([C@@H]1C[C@H](F)CN1)N1CCN2c3cc(OCc4ccc(F)c(F)c4)nc(=O)n3CC2C1 (stereo partly drawn) [Example E341, 7-((3,4-Difluorobenzyl)oxy)-2-((2S,4S)-4-fluoropyrrolidin-2-carbonyl)-3,4,11,11a-tetrahydro-1H-pyrazino[1′,2′:3,4]imidazo[1,2-c]pyrimidin-9(2H)-one]	≤ 10	≤ 0.1

Source: patent US11999746B2, “Compounds” (GlaxoSmithKline Intellectual Property Development Limited, priority 2014, dated 2024)
